Our source for the CC50 and EC50 values is patent US20230203004A1, “RSV INHIBITING 3-SUBSTITUTED QUINOLINE AND CINNOLINE DERIVATIVES” (Janssen Sciences Ireland Unlimited Company, priority 2020, published 2023).

pEC50: −log10 of the molar value. Where two headings read alike, the source gives them in different places.

Data set [1] is described as follows: Cytotoxicity in HeLa cells (ATP content, ATPlite kit). Format: cell-based. To be noted: human, TOX HELA CC50. The method, then: (§1) Black 384-well clear-bottom microtiter plates (Corning, Amsterdam, The Netherlands) were filled via acoustic drop ejection using the echo liquid handler (Labcyte, Sunnyvale, California). 200 nL of compound stock solutions (100% DMSO) were transferred to the assay plates. 9 serial 4-fold dilutions of compound were made, creating per quadrant the same compound concentration. The assay was initiated by adding 10 µL of culture medium to each well (RPMI medium without phenol red, 10% FBS-heat inactivated, 0.04% gentamycin (50 mg/mL). All addition steps are done by using a multidrop dispenser (Thermo Scientific, Erembodegem, Belgium). Next, rgRSV224 virus (MOI = 1) diluted in culture medium was added to the plates. rgRSV224 virus is an engineered virus that includes an additional GFP gene (Hallak LK, Spillmann D, Collins PL, Peeples ME. Glycosaminoglycan sulfation requirements for respiratory syncytial virus infection; Journal of virology (2000), 74(22), 10508-13) and was in-licensed from the NIH (Bethesda, MD, USA). Finally, 20 µL of a HeLa cell suspension (3,000 cells/well) were plated. Medium, virus- and mock-infected controls were included in each test. The wells contain […] DMSO per volume. Cells were incubated at 37° C. in a 5% CO2 atmosphere. Three days post-virus exposure, viral replication was quantified by measuring GFP expression in the cells by an in house developed MSM laser microscope (Tibotec, Beerse, Belgium). The EC50 was defined as the 50% inhibitory concentration for GFP expression. In parallel, compounds were incubated for three days in a set of white 384-well microtiter plates (Corning) and the cytotoxicity of compounds in HeLa cells was determined by measuring the ATP content of the cells using the ATPlite kit (Perkin Elmer, Zaventem, Belgium) according to the manufacturer’s instructions. The CC50 was defined as the 50% concentration for cytotoxicity.

The subject of the next data set is rgRSV224 virus. The experiment in a line: Antiviral activity: rgRSV224 (GFP) replication in HeLa cells. Format: cell-based, respiratory syncytial virus (RSV). To be noted: averaged data of several repeat experiments. The method, then: as §1
[2] abbreviates: human respiratory syncytial virus, HeLa, 72 h, read-out: RSV HELA EC50, HeLa cells, rgRSV224 MOI = 1, GFP expression three days post-virus exposure.
[3] abbreviates: read-out: RSV HELA EC50, HeLa cells, rgRSV224 MOI = 1, GFP expression three days post-virus exposure.

Broadly, the CC50 is the concentration that lowers cell viability or growth by half. Higher therefore signals lower toxicity to the cells. A word on the pEC50: it is −log10 of the EC50, conventionally taken in molar units. For the molecule `COc1cc(C(=O)NCC(O)(c2nc(-c3ccc(F)cc3)cc(C(C)(C)O)c2F)C(F)(F)F)cc2cc(C)nnc12` (racemic) [compound 279, (RS)Methoxy-3-Methyl-N-(3,3,3-Trifluoro-2-(3-Fluoro-6-(4-Fluorophenyl)-4-(2-Hydroxypropan-2-yl)Pyridin-2-yl)-2-Hydroxypropyl)Cinnoline-6-Carboxamide], in data set [1], the CC50 at 3 days turned out to be 16000 nM. The negative logarithm of the EC50 (pEC50) in the data set with rgRSV224 virus (setting [2]) was 7.33.

In data set [1], `COc1cc(C(=O)NC[C@](O)(c2cc(C(C)(C)O)c(F)c(-c3ccc(F)cc3)n2)C2CC2(C)C)cc2cc(C)nnc12` (single isomer, unassigned) [compound 294, N-((-)(2,2-dimethylcyclopropyl)(5-fluoro-6-(4-fluorophenyl)-4-(2-hydroxypropanyl)pyndmyl)hydroxyethyl)-8-methoxy-3-methylcmnoline-6-carboxamide] displayed a cytotoxic concentration (CC50) at 3 days of 13000 nM. Moreover, the negative-log EC50 (pEC50) in the data set with rgRSV224 virus (setting [2]) is 8.31.

For the molecule `COc1cc(C(=O)NC[C@@](O)(c2cc(C(C)(C)O)c(F)c(-c3ccc(F)cc3)n2)C2CC2(C)C)cc2cc(C)nnc12` (single isomer, unassigned) [compound 295, N-((+)(2,2-dimethylcyclopropyl)(5-fluoro-6-(4-fluorophenyl)-4-(2-hydroxypropanyl)pyridinyl)hydroxyethyl)-8-methoxy-3-methylcinnoline-6-carboxamide], it took 12000 nM to reach half-maximal cytotoxicity in data set [1] (CC50 at 3 days). Also, in the data set with rgRSV224 virus (setting [2]), the pEC50 was 6.74.

On to `COc1cc(C(=O)NC[C@](O)(c2cc(C(C)(C)O)c(F)c(-c3ccc(F)cc3)n2)C2C[C@H]2F)cc2cc(C)nnc12` (single isomer, unassigned) [compound 300, N-((*S)(5-Fluoro-6-(4-Fluorophenyl)-4-(2-Hydroxypropanyl)Pyridinyl)((1*S,2*R)Fluorocyclopropyl)Hydroxyethyl)-8-Methoxy-3-Methylcinnoline-6-Carboxamide], for which the CC50 at 3 days in data set [1] amounted to 27000 nM. Moreover, the pEC50 with rgRSV224 virus (setting [2]) was 9.15.

Consider `COc1cc(C(=O)NC[C@@](O)(c2cc(C(C)(C)O)c(F)c(-c3ccc(F)cc3)n2)C2C[C@@H]2F)cc2cc(C)nnc12` (single isomer, unassigned) [compound 301, N-((*R)(5-Fluoro-6-(4-Fluorophenyl)-4-(2-Hydroxypropanyl)Pyridinyl)((1*R,2*S)Fluorocyclopropyl)Hydroxyethyl)-8-Methoxy-3-Methylcinnoline-6-Carboxamide], for which the CC50 at 3 days in data set [1] came out at 22000 nM. For the same molecule, in the data set with rgRSV224 virus (setting [2]), the negative-log EC50 (pEC50) is 6.47.

For the molecule `COc1cc(C(=O)NC[C@](O)(c2cc(C(C)(C)O)c(F)c(-c3ccc(F)cc3)n2)C2C[C@@H]2F)cc2cc(C)nnc12` (single isomer, unassigned) [compound 302, N-((*S)(5-Fluoro-6-(4-Fluorophenyl)-4-(2-Hydroxypropanyl)Pyridinyl)((1*S.2*S)Fluorocyclopropyl)Hydroxyethyl)-8-Methoxy-3-Methylcinnoline-6-Carboxamide], the 50% cytotoxic concentration (CC50) at 3 days in data set [1] is more than 25000 nM. Also, the negative logarithm of the EC50 (pEC50) in the data set on rgRSV224 virus (setting [2]) was 8.92.

In data set [1], `COc1cc(C(=O)NC[C@@](O)(c2cc(C(C)(C)O)c(F)c(-c3ccc(F)cc3)n2)C2C[C@H]2F)cc2cc(C)nnc12` (single isomer, unassigned) [compound 303, N-((*R)(5-Fluoro-6-(4-Fluorophenyl)-4-(2-Hydroxypropanyl)Pyridinyl)((l*R, 2*R)Fluorocyclopropyl)Hydroxyethyl)-8-Methoxy-3-Methylcinnoline-6-Carboxamide] registered a 50% cytotoxic concentration (CC50) at 3 days of 23000 nM. Moreover, the negative-log EC50 (pEC50) in the data set with rgRSV224 virus (setting [2]) was 6.53.

In data set [1], `COc1cc(C(=O)NCC(O)(c2cc(C(C)(C)O)c(F)c(-c3ccc(F)cc3)n2)C(F)F)cc2cc(C)cnc12` (single isomer, unassigned; (+)) [compound 203, (+)-N-{3,3-Difluoro-2-[5-Fluoro-6-(4-Fluorophenyl)-4-(2-Hydroxypropan-2-yl)Pyridin-2-yl]-2-Hydroxypropyl}-8-Methoxy-3-Methylquinoline-6-Carboxamide] registered a CC50 at 3 days of 43000 nM. Also, the pEC50 with rgRSV224 virus (setting [3]) is 6.32.

In data set [1], `COc1cc(C(=O)NCC(O)(c2cc(C(C)(C)O)c(F)c(-c3ccc(F)cc3)n2)C(F)F)cc2cc(C)c(F)nc12` (single isomer, unassigned; (+)) [compound 213, (+)-N-{3,3-Difluoro-2-[5-Fluoro-6-(4-Fluorophenyl)-4-(2-Hydroxypropan-2-yl)Pyridin-2-yl]-2-Hydroxypropyl}-2-Fluoro-8-Methoxy-3-Methylquinoline-6-Carboxamide] yielded a 50% cytotoxic concentration (CC50) at 3 days of 31000 nM. In the data set with rgRSV224 virus (setting [3]), the pEC50 was 6.28.

Regarding `COc1cc(C(=O)NCC(O)(c2cc(C(C)(C)O)c(F)c(-c3ccc(F)cc3)n2)C(F)F)cc2cc(C)nnc12` (single isomer, unassigned; (+)) [compound 249, (+)-N-{3,3-Difluoro-2-[5-Fluoro-6-(4-Fluorophenyl)-4-(2-Hydroxypropan-2-yl)Pyridin-2-yl]-2-Hydroxypropyl}-8-Methoxy-3-Methylcinnoline-6-Carboxamide], it took 35000 nM to reach half-maximal cytotoxicity in data set [1] (CC50 at 3 days). For the same molecule, the pEC50 in the data set with rgRSV224 virus (setting [3]) was less than 5.90.

On to `COc1cc(C(=O)NCC(O)(c2cc(C(C)(C)NC(C)=O)c(F)c(-c3ccc(F)cc3)n2)C(F)(F)F)cc2cc(C)nnc12` (single isomer, unassigned; (-)) [compound 235, (-)-N-{2-[4-(2-Acetamidopropan-2-yl)-5-Fluoro-6-(4-Fluorophenyl)Pyridin-2-yl]-3,3,3-Trifluoro-2-Hydroxypropyl}-8-Methoxy-3-Methylcinnoline-6-Carboxamide], for which the midpoint of cytotoxicity in data set [1], the CC50 at 3 days, lay at 25000 nM. Further, the negative-log EC50 (pEC50) with rgRSV224 virus (setting [2]) is 9.21.

With `COc1cc(C(=O)NCC(O)(c2cc(C(C)(C)O)c(F)c(-c3ccc(C4CC4)cc3)n2)C2CC2)cc2cc(C)nnc12` (single isomer, unassigned; (-)) [compound 254, (-)-N-{2-Cyclopropyl-2-[6-(4-Cyclopropylphenyl)-5-Fluoro-4-(2-Hydroxypropan-2-yl)Pyridin-2-yl]-2-Hydroxyethyl}-8-Methoxy-3-Methylcinnoline-6-Carboxamide], in data set [1], the cytotoxic concentration (CC50) at 3 days turned out to be 15000 nM. In addition, in the data set with rgRSV224 virus (setting [2]), the pEC50 is 8.46.

`COc1cc(C(=O)NCC(O)(c2cc(C(C)(C)O)c(F)c(-c3cccc(F)c3)n2)C2CC2)cc2cc(C)nnc12` (single isomer, unassigned; (-)) [compound 255, (-)-N-{2-Cyclopropyl-2-[5-Fluoro-6-(3-Fluorophenyl)-4-(2-Hydroxypropan-2-yl)Pyridin-2-yl]-2-Hydroxyethyl}-8-Methoxy-3-Methylcinnoline-6-Carboxamide]: in data set [1], the half-maximal cytotoxic concentration (CC50) at 3 days was 44000 nM. In the data set on rgRSV224 virus (setting [2]), the pEC50 was 9.09.

In the case of `Cc1cc2cc(C(=O)NCC(O)(c3cc(C(C)(C)O)c(F)c(-c4ccc(F)cc4)n3)C3CC3)cc(OC(F)F)c2nn1` (single isomer, unassigned; (-)) [compound 260, (-)-N-{2-Cyclopropyl-2-[5-Fluoro-6-(4-Fluorophenyl)-4-(2-Hydroxypropan-2-yl)Pyridin-2-yl]-2-Hydroxyethyl}-8-(Difluoromethoxy)-3-Methylcinnoline-6-Carboxamide], the cytotoxic concentration (CC50) at 3 days in data set [1] came out at 19000 nM. Further, the pEC50 in the data set with rgRSV224 virus (setting [2]) was 8.80.

Regarding `Cc1cc2cc(C(=O)NCC(O)(c3cc(C(C)(C)O)c(Cl)c(-c4ccc(F)cc4)n3)C(F)(F)F)cc(OC(F)(F)F)c2nn1` (single isomer, unassigned; (-)) [compound 261, (-)-N-{2-[5-Chloro-6-(4-Fluorophenyl)-4-(2-Hydroxypropan-2-yl)Pyridin-2-yl]-3,3,3-Trifluoro-2-Hydroxypropyl}-3-Methyl-8-(Trifluoromethoxy)Cinnoline-6-Carboxamide], it took 13000 nM to reach half-maximal cytotoxicity in data set [1] (CC50 at 3 days). Moreover, the pEC50 in the data set on rgRSV224 virus (setting [2]) was 7.89.

With `COc1cc(C(=O)NCC(O)(c2cc(C(C)(C)O)c(F)c(-c3ccc(F)cc3)n2)[C@H]2CC2(F)F)cc2cc(C)nnc12` (stereo in doubt) [compound 319, N-((*R)-2,2-Difluorocyclopropyl)-2-(5-Fluoro-6-(4-Fluorophenyl)-4-Hydroxypropan-2-yl)Pyridin-2-yl)-2-Hydroxyethyl)-8-Methoxy-3-Methylcinnoline-6-Carboxamide], the CC50 at 3 days in data set [1] turned out to be 6100 nM. Moreover, in the data set on rgRSV224 virus (setting [2]), the pEC50 was 8.92.

Consider `Cc1cnc2c(OC3CC3)cc(C(=O)NC[C@](O)(c3cc(C(C)(C)O)c(F)c(-c4ccc(F)cc4)n3)C(F)(F)F)cc2c1` [compound 323, (-)Cyclopropoxy-3-Methyl-N-(3,3,3-Trifluoro-2-(5-Fluoro-6-(4-Fluorophenyl)-4-(2-Hydroxypropan-2-yl)Pyridin-2-yl)-2-Hydroxypropyl)Quinoline-6-Carboxamide], for which the pEC50 in the data set with rgRSV224 virus (setting [3]) was 8.42.
